For data set [1] the following is noted: corticosteroids used in aerosol form; cited from earlier work.
A further data set deals with thymus. Set-up: species or system Male Wistar rats. The settings on record: rat, in vivo, 10080 min. From the text:
All of the steroids described in this invention are pharmacologically active compounds. The glucocorticoid activity of these products was studied in comparison with that of budesonide: pregna-1,4-diene-3,20-dione, 16,17-butylidenebis(oxy)-11-21-dihydroxy-(11β,16α). The pharmacologic action on the acetonides triamcinolone acetonide and flunisolide was also studied.
(§1) Anti-inflammatory effects of the compounds were screened in the cotton pellet granuloma bioassay for identification of lead compounds. (Meier et al., Eperimentia 6, 469, 1950). Male Wistar rats were used, ranging in weight between 90 and 120 g, at the rate of 10 animals per group, previously identified and quartered in individual cages. The animals had free access to feed and drink throughout the trial.
(§2) Cotton pellets weighing exactly 20 mg were prepared, sterilized for 2 hr. at 160° C. soaked with 50 λl solution of the product or with the solvent before implantation, and subsequently the solvent is evaporated before application. The implantation was performed subcutaneously in the axillary zone of the animals previously anesthetized with ether (right axilla pellet with product, left axilla pellet with solvent). Animals in which pellets without product were implanted were used as controls.
(§3) The drug was applied in alcohol solution at 4 dosage levels. Once the pellets were implanted, the animals were kept under normal rearing conditions, isolated for 7 days and then weighed, after which they were sacrificed by exsanguination.
Extraction and weighing of the thymus and adrenals were performed in all animals and a fluorometric determination of the cortisol plasma levels was made. We consider the variation in these parameters indicative of the systemic glucocorticoid activity of the products.
(§4) Anti-inflammatory ED50 (topical effect), thymus inhibition ED50 (systemic effect), therapeutic index (systemic ED50 /topical ED50), and the therapeutic index relative to budesonide (=1).
(§5) All of the ED50 values were calculated from the linear regression lines with the confidence limits.

In data set [2] the test system is cotton-pellet-induced granuloma. Put plainly: cotton pellet granuloma bioassay, topical anti-inflammatory activity (inhibitory effect on granuloma weight). It counts as in vivo, Male Wistar rats. The settings on record: for Topical anti-inflammatory activity (Cotton Pellet), ED50: local application on implanted pellet, 4 dosage levels, 7 days; for Therapeutic index systemic ED50 / topical ED50: thymus inhibition ED50 / cotton pellet ED50, 10080 min.
From the text: The glucocorticoid activity of these products was studied in comparison with that of budesonide: pregna-1,4-diene-3,20-dione, 16,17-butylidenebis(oxy)-11-21-dihydroxy-(11β,16α). The pharmacologic action on the acetonides triamcinolone acetonide and flunisolide was also studied.
as §1, §2, §3
The topical activity was determined by the inhibitory effect on the weight of the cotton-pellet-induced granuloma; the granulomas were extracted and weighed (pellet and connective tissue surrounding them, dried for 24 hr in a 60° oven, and weighed).
as §4, §5

Regarding `CC1(C)O[C@@H]2C[C@H]3[C@@H]4CCC5=CC(=O)C=C[C@]5(C)[C@@]4(F)[C@@H](O)C[C@]3(C)[C@]2(C(=O)CO)O1` (stereo in doubt) [TRIAMCINOLONE ACETONIDE, triamcinolone acetonide, reference compound], the “effect in aerosol form” value in data set [1] was “highly positive effect”. Moreover, the “Systemic glucocorticoid activity (Thymus inhibition), ED50” value with thymus is 156.4 μg/pellet. In data set [2], the “Topical anti-inflammatory activity (Cotton Pellet), ED50” value (“Topical anti-inflammatory activity” below) came to 220.7 μg/pellet and the “Therapeutic index systemic ED50 / topical ED50” value is recorded as 0.7.

Consider `CCCC1O[C@@H]2C[C@H]3[C@@H]4CCC5=CC(=O)C=C[C@]5(C)[C@H]4[C@@H](O)C[C@]3(C)[C@]2(C(=O)CO)O1` (stereo partly drawn) [BUDESONIDE, pregna-1,4-diene-3,20-dione, 16,17-butylidenebis(oxy)-11-21-dihydroxy-(11β,16α), reference compound], for which, in data set [1], the “effect in aerosol form” value is reported as “highly positive effect”. Further, the “Systemic glucocorticoid activity (Thymus inhibition), ED50” value with thymus was 178.6 μg/pellet. Further, in data set [2], the “Topical anti-inflammatory activity” value is 163.6 μg/pellet and the “Therapeutic index systemic ED50 / topical ED50” value is on record as 1.09.

With `CC(C)C(=O)OCC(=O)C12OC(C3CCCCC3)OC1CC1C3CCC4=CC(=O)C=CC4(C)C3C(O)CC12C` [Compound 7, (22R,S)-pregna 1,4-diene-3,20-dione, 16,17-[[cyclohexylmethylidyne]bis (oxy)]-11-hydroxy-21-(2-methyl-1-oxo-propoxy)-(11β,16α)], in the data set with thymus, the “Systemic glucocorticoid activity (Thymus inhibition), ED50” value worked out at 614.7 μg/pellet. In data set [2], the “Topical anti-inflammatory activity” value is given as 21.7 μg/pellet and the “Therapeutic index systemic ED50 / topical ED50” value turned out to be 28.3.

With `CC(C)C(=O)OCC(=O)C12OC(C3CCCCC3)OC1CC1C3CCC4=CC(=O)C=CC4(C)C3C(O)CC12C` [Compound 8, (22,S)-pregna 1,4-diene-3,20-dione 16,17-[[cyclohexyl-methylidyne]bis (oxy)]-11-hydroxy-21-(2-methyl-1-oxo-propoxy)-(11β,16α)], the “Systemic glucocorticoid activity (Thymus inhibition), ED50” value in the data set on thymus turned out to be 608 μg/pellet. Further, in data set [2], the “Topical anti-inflammatory activity” value was 20.5 μg/pellet and the “Therapeutic index systemic ED50 / topical ED50” value was 29.6.

In the case of `CC(C)C(=O)OCC(=O)C12OC(C3CCCCC3)OC1CC1C3CCC4=CC(=O)C=CC4(C)C3C(O)CC12C` (centres unmarked) [Compound 9], in the data set on thymus, the “Systemic glucocorticoid activity (Thymus inhibition), ED50” value is recorded as 667.1 μg/pellet. For the same compound, in data set [2], the “Topical anti-inflammatory activity” value was found to be 25.4 μg/pellet and the “Therapeutic index systemic ED50 / topical ED50” value turned out to be 26.2.

As for `CCCCC1OC2CC3C4CCC5=CC(=O)C=CC5(C)C4C(O)CC3(C)C2(C(=O)COC(C)=O)O1` [Compound 10, (22R,S)-of pregna 1,4-diene-3,20-dione-21-(acetyloxy)-11-hydroxy-16,17-(pentylidene) bis(oxy)-(11β,16α)], the “Systemic glucocorticoid activity (Thymus inhibition), ED50” value in the data set on thymus was 583.2 μg/pellet. In addition, in data set [2], the “Topical anti-inflammatory activity” value was found to be 59.9 μg/pellet and the “Therapeutic index systemic ED50 / topical ED50” value is given as 9.7.

As to `CCCCC1OC2CC3C4CCC5=CC(=O)C=CC5(C)C4C(O)CC3(C)C2(C(=O)COC(C)=O)O1` [Compound 11, (22S)-pregna 1,4-diene-3,20-dione-21-(acetyloxy)-11-hydroxy-16,17-(pentylidene)-bis-(oxy)-(11β,16α)], in the data set on thymus, the “Systemic glucocorticoid activity (Thymus inhibition), ED50” value is 555.3 μg/pellet. For the same compound, in data set [2], the “Topical anti-inflammatory activity” value is given as 43 μg/pellet and the “Therapeutic index systemic ED50 / topical ED50” value is on record as 12.9.

As for `CCCCC1OC2CC3C4CCC5=CC(=O)C=CC5(C)C4C(O)CC3(C)C2(C(=O)COC(C)=O)O1` (centres unmarked) [Compound 12], the “Systemic glucocorticoid activity (Thymus inhibition), ED50” value in the data set on thymus is given as 592.2 μg/pellet. Further, in data set [2], the “Topical anti-inflammatory activity” value was determined as 74.7 μg/pellet and the “Therapeutic index systemic ED50 / topical ED50” value came to 7.9.

As to `CC(C)C(=O)OCC(=O)C12OC(C3CCCCC3)OC1CC1C3CC(F)C4=CC(=O)C=CC4(C)C3(F)C(O)CC12C` [Compound 13, (22R,S)-pregna 1,4-diene-3,20-dione-16,17-(cyclohyxylmethylidine)-bis-(oxy)-6,9-difluoro-11-hydroxy-21-(methyl-1-oxo-propoxy)-(11β,16α)], the “Systemic glucocorticoid activity (Thymus inhibition), ED50” value in the data set on thymus was 54 μg/pellet. For the same compound, in data set [2], the “Topical anti-inflammatory activity” value worked out at 4.5 μg/pellet and the “Therapeutic index systemic ED50 / topical ED50” value is recorded as 12.

Regarding `CC(C)C(=O)OCC(=O)C12OC(C3CCCCC3)OC1CC1C3CC(F)C4=CC(=O)C=CC4(C)C3(F)C(O)CC12C` [Compound 14, (22S)-pregna-1,4-diene-3,20-dione-16,17-(cyclohexylmethylidine)-bis-(oxy)-6,9-difluoro-11-hydroxy-21-(s-methyl-1-oxo-propoxy)-(11β,16α)], in the data set with thymus, the “Systemic glucocorticoid activity (Thymus inhibition), ED50” value was found to be 49 μg/pellet. In data set [2], the “Topical anti-inflammatory activity” value is given as 3.6 μg/pellet and the “Therapeutic index systemic ED50 / topical ED50” value came to 13.6.

As to `CC(C)C(=O)OCC(=O)C12OC(C3CCCCC3)OC1CC1C3CC(F)C4=CC(=O)C=CC4(C)C3(F)C(O)CC12C` (centres unmarked) [Compound 15], the “Systemic glucocorticoid activity (Thymus inhibition), ED50” value with thymus came to 56.3 μg/pellet. Moreover, in data set [2], the “Topical anti-inflammatory activity” value is 5.2 μg/pellet and the “Therapeutic index systemic ED50 / topical ED50” value worked out at 10.8.

For the compound `CC1(C)O[C@@H]2C[C@H]3[C@@H]4C[C@H](F)C5=CC(=O)C=C[C@]5(C)[C@H]4[C@@H](O)C[C@]3(C)[C@]2(C(=O)CO)O1` [FLUNISOLIDE, flunisolide, reference compound], in data set [1], the “effect in aerosol form” value was “highly positive effect”. For the same compound, the “Systemic glucocorticoid activity (Thymus inhibition), ED50” value with thymus turned out to be 156 μg/pellet. For the same compound, in data set [2], the “Topical anti-inflammatory activity” value is given as 351.6 μg/pellet and the “Therapeutic index systemic ED50 / topical ED50” value is reported as 0.44.

Take `CCC(=O)OCC(=O)[C@@]1(OC(=O)CC)[C@@H](C)C[C@H]2[C@@H]3CCC4=CC(=O)C=C[C@]4(C)[C@@]3(Cl)[C@@H](O)C[C@@]21C` [beclomethasone dipropionate]: in data set [1], the “effect in aerosol form” value is reported as “highly positive effect”.

As to `CCCCC(=O)O[C@]1(C(=O)CO)[C@@H](C)C[C@H]2[C@@H]3CCC4=CC(=O)C=C[C@]4(C)[C@@]3(F)[C@@H](O)C[C@@]21C` [betamethasone valerate], the “effect in aerosol form” value in data set [1] is reported as “highly positive effect”.

These data come from patent publication US5482934A, “Pregna-1,4-diene3,20-dione-16-17-acetal-21 esters, process for their preparation, composition, and methods for the treatment of inflammatory conditions” (priority 1994, dated 1996).
